According to patent US8906825B2, “Herbicidal compositions comprising 4-amino-3-chloro-5-fluoro-6-(4-chloro-2-fluoro-3-methoxyphenyl) pyridine-2-carboxylic acid or a derivative thereof and triazolopyrimidine sulfonamides” (Dow AgroSciences LLC, priority 2012, dated 2014):

Columns and labels:
Assay type in all cases: in vivo
[1] = tested on: SASKR (Salsola iberica (L.), Russian thistle); test: Postemergence foliar-applied herbicidal mixtures, cereal crops, greenhouse (Example III); details: Compound A Benzyl Ester 5 gai/ha, visual score 0 to 100 percent after 20-22 days
Procedure: (§1) Seeds of the desired test plant species were planted in Sun Gro MetroMix® 306 planting mixture, which typically has a pH of 6.0 to 6.8 and an organic matter content of about 30 percent, in plastic pots with a surface area of 103.2 square centimeters (cm^2). […] The plants were grown for 7-36 days in a greenhouse with an approximate 14 hour photoperiod which was maintained at about 18° C. during the day and about 17° C. during the night. Nutrients and water were added on a regular basis and supplemental lighting was provided with overhead metal halide 1000-Watt lamps as necessary. The plants were employed for testing when they reached the second or third true leaf stage.
(§2) Treatments consisted of the benzyl ester of 4-amino-3-chloro-5-fluoro-6-(4-chloro-2-fluoro-3-methoxy-phenyl)pyridine-2-carboxylic acid (Compound A), formulated as an SC, a second cereal herbicide alone and then both in combination.
(§3) Other herbicidal components were applied on an active ingredient basis and included acetolactate synthase (ALS)-inhibiting herbicides (sulfonamide chemical class) florasulam formulated as Derby® and pyroxsulam formulated as PowerFlex®. A measured aliquot of benzyl ester of 4-amino-3-chloro-5-fluoro-6-(4-chloro-2-fluoro-3-methoxy-phenyl)pyridine-2-carboxylic acid (Compound A) was placed in 25 milliliter (mL) glass vials and diluted in a volume of 1.25% (v/v) AgriDex® crop oil concentrated to obtain a stock solution. Compound requirements are based upon a 12 mL application volume at a rate of 187 liters per hectare (L/ha). […] Formulated compounds were applied to the plant material with an overhead Mandel track sprayer equipped with an 8002E nozzle calibrated to deliver 187 L/ha over an application area of 0.503 square meters (m^2) at a spray height of 18 inches (46 cm) above average plant canopy. Control plants were sprayed in the same manner with the solvent blank.
(§4) The treated plants and control plants were placed in a greenhouse as described above and watered by sub-irrigation to prevent wash-off of the test compounds. After 20-22 days, the condition of the test plants as compared with that of the control plants was determined visually and scored on a scale of 0 to 100 percent where 0 corresponds to no injury and 100 corresponds to complete kill.
(§5) Colby's equation was used to determine the herbicidal effects expected from the mixtures (Colby, S. R. 1967. Calculation of the synergistic and antagonistic response of herbicide combinations. Weeds 15:20-22.).
(§6) The following equation was used to calculate the expected activity of mixtures containing two active ingredients, A and B: Expected=A+B−(A×B/100)

[2] = tested on: VIOTR (Viola tricolor (L.), wild pansy); test: as above; details: Compound A Benzyl Ester 5 gai/ha, visual score 0 to 100 percent after 20-22 days
Procedure: as §1, §2, §3, §4, §5, §6

[3] = tested on: CIRAR (Cirsium arvense (L.) Scop., Canada thistle); test: as above
Procedure: as §1, §2, §3, §4, §5, §6

[4] = tested on: MATCH (Chamomilla chamomilla (L.) Rydb., scented mayweed); test: as above; details: Compound A Benzyl Ester 5 gai/ha, visual score 0 to 100 percent after 20-22 days
Procedure: as §1, §2, §3, §4, §5, §6

[5] = tested on: VERPE (Veronica persica Poir., bird's-eye speedwell); test: as above; details: visual score 0 to 100 percent after 20-22 days
Procedure: as §1, §2, §3, §4, §5, §6

[6] = tested on: LAMPU (Lamium purpureum (L.), purple deadnettle); test: as above; details: Compound A Benzyl Ester 8.75 gai/ha, visual score 0 to 100 percent after 20-22 days
Procedure: as §1, §2, §3, §4, §5, §6

[7] = tested on: CYPIR (Cyperus iria L., rice flatsedge); test: Postemergence foliar-applied herbicidal mixtures, direct seeded rice, greenhouse (Example I)
[8] = tested on: ECHCG (Echinochloa crusgalli (L.) Beauv., barnyardgrass); test: as above

SMILES | SASKR Obs [1] [%] | VIOTR Obs [2] [%] | CIRAR Obs ([3]; Compound A Benzyl Ester 5 gai/ha, visual score 0 to 100 percent after 20-22 days) [%] | CIRAR Obs ([3]; Compound A Benzyl Ester 8.75 gai/ha, visual score after 20-22 days, Table 17) [%] | CIRAR Obs ([3]; Compound A Benzyl Ester 8.75 gai/ha, visual score after 20-22 days, Table 18) [%] | MATCH Obs [4] [%] | VERPE Obs ([5]; Compound A Benzyl Ester 5 gai/ha) [%] | VERPE Obs ([5]; Compound A Benzyl Ester 8.75 gai/ha) [%] | LAMPU Obs [6] [%] | Visual Weed Control (%) - 20 DAA CYPIR Obs ([7]; Compound A Benzyl Ester 4.38 gae/ha) [%] | Visual Weed Control (%) - 22 DAA CYPIR Obs ([7]; Compound A Benzyl Ester 8 gae/ha) [%] | Visual Weed Control (%) - 20 DAA CYPIR Obs ([7]; Compound A Benzyl Ester 8.75 gae/ha) [%] | Visual Weed Control (%) - 22 DAA CYPIR Obs ([7]; Compound A Benzyl Ester 16 gae/ha) [%] | Visual Weed Control (%) - 20 DAA CYPIR Obs ([7]; Compound A Benzyl Ester 17.5 gae/ha) [%] | Visual Weed Control (%) - 27 DAA ECHCG Obs ([8]; Penoxsulam 4.38 gai/ha) [%] | Visual Weed Control (%) - 27 DAA ECHCG Obs ([8]; Penoxsulam 8.75 gai/ha) [%]
COc1c(Cl)ccc(-c2nc(C(=O)OCc3ccccc3)c(Cl)c(N)c2F)c1F [Compound A Benzyl Ester, benzyl ester of 4-amino-3-chloro-5-fluoro-6-(4-chloro-2-fluoro-3-methoxy-phenyl)pyridine-2-carboxylic acid] | 57 | 13 | 40 | 40 | 40 | 13 | 37 | 50 | 83 | 15 | 20 | 60 | 85 | 90 |  | 
COc1cnc(OC)n2nc(NS(=O)(=O)c3c(OCC(F)F)cccc3C(F)(F)F)nc12 [Penoxsulam, 2-(2,2-difluoroethoxy)-N-(5,8-dimethoxy[1,2,4]triazolo[1,5-c]pyrimidin-2-yl)-6-(trifluoromethyl)benzenesulfonamide, reference compound] |  |  |  |  |  |  |  |  |  |  |  |  |  |  | 0 | 30
